Patent US20100112089A1, “PEPTIDE COMPOUND AND USE THEREOF” (Takeda Pharmaceutical Company Limited, priority 2008, published 2010)
Where a name gives a salt, the structure may show the parent alone. Read-outs that look alike come from different tables or passages of the source. Square brackets hold non-standard residues; d marks the D form. Peptide text beside a SMILES is read from it. dPhe(F5) = N[C@H](Cc1c(F)c(F)c(F)c(F)c1F)C(=O)O; dBpa = N[C@H](Cc1ccc(C(=O)c2ccccc2)cc1)C(=O)O; dCha = N[C@H](CC1CCCCC1)C(=O)O

Experiments:
[1] = Tissue distribution of 3H-labelled CBP501, NCI-H226 xenograft model; assay type: in vivo, SCID mice; conditions: NCI-H226 and MSTO-211H xenograft tumors, Table 15
Method: A suspension of NCI-H226 cells was injected subcutaneously into the flanks of six weeks old male severe […] combined immune deficiency (SCID) mice (Charles River Lab., Wilmington, Mass.). The size of tumors was measured three times a week using a caliper. The volumes were calculated using the following formula: volume (cm^3)=[width^2 (mm)×length (mm)]/2000. The relative tumor volume was expressed as the Vt/V0 index, where Vt is the tumor volume on a measured day, and V0 is the volume of the same tumor just before the first treatment. Mean relative tumor sizes with standard error of mean, SEM, were plotted. Body weight was measured three times weekly from the first treatment, and the weight change was expressed as a percentage of the initial weight. Animals were housed in accordance with guidelines from the Association for the Assessment and Accreditation of Laboratory Animal Care International, and the protocols were approved by the institutional animal care committee of CanBas Co., Ltd.
An N-terminal amino acid, p-benzoylphenylalanyl, was ^3H labeled by Daiichi Kagaku Yakuhin Co., Ltd. (Tokyo, Japan).

[2] = Pharmacokinetics of CBP501, combination study; assay type: in vivo, human; conditions: for Cl / AUC(0-inf) / Cmax / clearance / half-life: combination with cisplatin; for AUC(0-inf) / Cmax / clearance / half-life: human, in vivo
[3] = Pharmacokinetics of CBP501, single agent study; assay type: in vivo, human; conditions: for AUC(0-inf) / Cmax / clearance / half-life: human
Excerpt: PK was examined in cycle (cy) 1. MTD is the level below that where 2 of 3-6 patients (pts) have DLT during cy 1-2.
In the single agent study, PK was examined in cycle 1. Samples were collected on Days 1 and 15 before the start of the infusion, then at various time points over 24 hr from the start of the infusion, as described below.

NCI-H226 cells = assay: Water soluble tetrazolium (WST) analysis; assay type: cell-based; conditions: 72 hours
Method: (§1) The medium was replaced 24 hr after treatment, the cells were incubated for an additional 48 hr, and WST-8 solution (Kishida Chemical Co., Osaka, Japan) was added to each well. After 4 hr of incubation at 37° C., the absorbance at 450 nm was measured by microplate reader (Molecular Devices, Calif.).

MSTO-211H cells = assay: Water soluble tetrazolium (WST) analysis; assay type: cell-based; conditions: 72 hours
Method: as §1

[4] = at the recommended dose; non-patent literature 15; read-out: Cmax in the human studies; cited from earlier work
[5] = CBP501 7.2 mg/m^2, Day 1, mean, N 3
[6] = CBP501 10.8 mg/m^2, Day 1, mean, N 5
[7] = CBP501 16.2 mg/m^2, Day 1, mean, N 3
[8] = CBP501 24.3 mg/m^2, Day 1, mean, N 2
[9] = CBP501 36.45 mg/m^2, Day 1, mean, N 5
[10] = in vivo, 0.9 mg/m2, single agent, 0.9 mg/m^2, Day 1, mean, N 4
[11] = in vivo, 0.9 mg/m2, single agent, 0.9 mg/m^2, Day 15, mean, N 3
[12] = in vivo, 7.2 mg/m2, single agent, 7.2 mg/m^2, Day 1, mean, N 3
[13] = in vivo, 7.2 mg/m2, single agent, 7.2 mg/m^2, Day 15, mean, N 3
[14] = in vivo, 9.57 mg/m2, single agent, 9.57 mg/m^2, Day 1, mean, N 3
[15] = in vivo, 9.57 mg/m2, single agent, 9.57 mg/m^2, Day 15, mean, N 2
[16] = in vivo, 12.73 mg/m2, single agent, 12.73 mg/m^2, Day 1, mean, N 3
[17] = in vivo, 12.73 mg/m2, single agent, 12.73 mg/m^2, Day 15, mean, N 3
[18] = in vivo, 16.93 mg/m2, single agent, 16.93 mg/m^2, Day 1, mean, N 2
[19] = in vivo, 16.93 mg/m2, single agent, 16.93 mg/m^2, Day 15, mean, N 3
[20] = in vivo, 22.5 mg/m2, single agent, 22.5 mg/m^2, Day 1, mean, N 7
[21] = in vivo, 22.5 mg/m2, single agent, 22.5 mg/m^2, Day 15, mean, N 5
[22] = in vivo, […]2, single agent, […]^2, Day 1, mean, N 3
[23] = in vivo, […]2, single agent, […]^2, Day 1, mean, N 4

Q: What does the source list for N=C(N)NCCC[C@@H](NC(=O)[C@@H](CCCNC(=N)N)NC(=O)[C@@H](CCC(N)=O)NC(=O)[C@@H](CCCNC(=N)N)NC(=O)[C@@H](CCCNC(=N)N)NC(=O)[C@@H](CCCNC(=N)N)NC(=O)[C@@H](CC1CCCCC1)NC(=O)[C@@H](Cc1c(F)c(F)c(F)c(F)c1F)NC(=O)[C@@H](CO)NC(=O)[C@@H](Cc1c[nH]c2ccccc12)NC(=O)[C@@H](CO)NC(=O)[C@H](N)Cc1ccc(C(=O)c2ccccc2)cc1)C(=O)O [CBP501, H-(D)p-Benzoylphenylalanyl-(D)seryl-(D)tryptophyl-(D)seryl-(D)pentafluorophenylalanyl-(D)cyclohexylalanyl-(D)arginyl-(D)arginyl-(D)arginyl-(D)glutaminyl-(D)arginyl-(D)arginine acetate salt] (H-[dBpa][dS][dW][dS][dPhe(F5)][dCha][dR][dR][dR][dQ][dR][dR]-OH)?
A: concentration of CBP501 in the subcutaneous tumor xenograft [1]: 1 to 2 µM; Cl [2, 5]: 2752 mL/h/m^2; Cl [2, 6]: 2198 mL/h/m^2; Cl [2, 7]: 2124 mL/h/m^2; Cl [2, 8]: 1217 mL/h/m^2; Cl [2, 9]: 971 mL/h/m^2; Cl ([2]; CBP501 […]^2, Day 1, mean, N 6): 2526 mL/h/m^2; AUC(0-inf) [2, 5]: 2.82 µg·h/mL; Cmax [2, 5]: 1.77 µg/mL; clearance [2, 5]: 0.075 L/h/kg; half-life [2, 5]: 1.7 h; AUC(0-inf) [2, 6]: 5.35 µg·h/mL; Cmax [2, 6]: 2.55 µg/mL; clearance [2, 6]: 0.053 L/h/kg; half-life [2, 6]: 1.7 h; AUC(0-inf) [2, 7]: 7.64 µg·h/mL; Cmax [2, 7]: 3.49 µg/mL; clearance [2, 7]: 0.054 L/h/kg; half-life [2, 7]: 2.8 h; AUC(0-inf) [2, 8]: 20.2 µg·h/mL; Cmax [2, 8]: 6.83 µg/mL; clearance [2, 8]: 0.034 L/h/kg; half-life [2, 8]: 4.1 h; AUC(0-inf) [2, 9]: 39.4 µg·h/mL; Cmax [2, 9]: 9.49 µg/mL; clearance [2, 9]: 0.025 L/h/kg; half-life [2, 9]: 3.7 h; clearance ([2]; CBP501 […]^2, Day 1, mean, N 6): 0.063 L/h/kg; half-life ([2]; CBP501 […]^2, Day 1, mean, N 6): 3.9 h; dose-proportionality of Cmax and AUC ([2]; in combination with cisplatin, over the dose range evaluated, acetate salt): showed dose-proportionality; inter-patient variability within dose levels, coefficient of variation ([3]; both studies, generally in the range): 20%-40%; AUC(0-inf) [3, 10]: 0.178 µg·h/mL; Cmax [3, 10]: 0.121 µg/mL; clearance [3, 10]: 0.123 L/h/kg; half-life [3, 10]: 0.7 h; AUC(0-inf) [3, 11]: 0.188 µg·h/mL; Cmax [3, 11]: 0.138 µg/mL; clearance [3, 11]: 0.108 L/h/kg; half-life [3, 11]: 0.6 h; AUC(0-inf) [3, 12]: 4.39 µg·h/mL; Cmax [3, 12]: 1.92 µg/mL; clearance [3, 12]: 0.049 L/h/kg; half-life [3, 12]: 1.3 h; AUC(0-inf) [3, 13]: 3.66 µg·h/mL; Cmax [3, 13]: 2.01 µg/mL; clearance [3, 13]: 0.056 L/h/kg; half-life [3, 13]: 1.1 h; AUC(0-inf) [3, 14]: 6.48 µg·h/mL; Cmax [3, 14]: 2.89 µg/mL; clearance [3, 14]: 0.038 L/h/kg; half-life [3, 14]: 2.5 h; AUC(0-inf) [3, 15]: 5.14 µg·h/mL; Cmax [3, 15]: 2.41 µg/mL; clearance [3, 15]: 0.047 L/h/kg; half-life [3, 15]: 1.2 h; AUC(0-inf) [3, 16]: 6.34 µg·h/mL; Cmax [3, 16]: 2.73 µg/mL; clearance [3, 16]: 0.059 L/h/kg; half-life [3, 16]: 1.4 h; AUC(0-inf) [3, 17]: 7.66 µg·h/mL; Cmax [3, 17]: 3.08 µg/mL; clearance [3, 17]: 0.048 L/h/kg; half-life [3, 17]: 2.4 h; AUC(0-inf) [3, 18]: 14.3 µg·h/mL; Cmax [3, 18]: 4.92 µg/mL; clearance [3, 18]: 0.037 L/h/kg; half-life [3, 18]: 2 h; AUC(0-inf) [3, 19]: 12.6 µg·h/mL; Cmax [3, 19]: 4.64 µg/mL; clearance [3, 19]: 0.036 L/h/kg; half-life [3, 19]: 2.9 h; AUC(0-inf) [3, 20]: 16.5 µg·h/mL; Cmax [3, 20]: 6.08 µg/mL; clearance [3, 20]: 0.04 L/h/kg; half-life [3, 20]: 3.2 h; AUC(0-inf) [3, 21]: 20.2 µg·h/mL; Cmax [3, 21]: 7.49 µg/mL; clearance [3, 21]: 0.035 L/h/kg; half-life [3, 21]: 4 h; clearance [3, 22]: 0.055 L/h/kg; half-life [3, 22]: 1.2 h; clearance [3, 23]: 0.052 L/h/kg; half-life [3, 23]: 1.7 h; half-life ([3]; in vivo, […]2, single agent, […]^2, Day 15, mean, N 3): 1.6 h; differences in PK between day 1 and day 15 or between single-agent and combination administration ([3]; in vivo): No consistent differences; dose range over which dose-proportionality of Cmax and AUC0-inf was observed ([3]; in vivo): 40 fold; Cl ([3]; single agent, 0.9 mg/m^2, Day 1, mean, N 4): 5240 mL/h/m^2; Cl ([3]; single agent, 0.9 mg/m^2, Day 15, mean, N 3): 4908 mL/h/m^2; Cl ([3]; single agent, 7.2 mg/m^2, Day 1, mean, N 3): 1802 mL/h/m^2; Cl ([3]; single agent, 7.2 mg/m^2, Day 15, mean, N 3): 2041 mL/h/m^2; Cl ([3]; single agent, 9.57 mg/m^2, Day 1, mean, N 3): 1599 mL/h/m^2; Cl ([3]; single agent, 9.57 mg/m^2, Day 15, mean, N 2): 1954 mL/h/m^2; Cl ([3]; single agent, 12.73 mg/m^2, Day 1, mean, N 3): 2081 mL/h/m^2; Cl ([3]; single agent, 12.73 mg/m^2, Day 15, mean, N 3): 1677 mL/h/m^2; Cl ([3]; single agent, 16.93 mg/m^2, Day 1, mean, N 2): 1395 mL/h/m^2; Cl ([3]; single agent, 16.93 mg/m^2, Day 15, mean, N 3): 1372 mL/h/m^2; Cl ([3]; single agent, 22.5 mg/m^2, Day 1, mean, N 7): 1458 mL/h/m^2; Cl ([3]; single agent, 22.5 mg/m^2, Day 15, mean, N 5): 1206 mL/h/m^2; Cl ([3]; single agent, […]^2, Day 1, mean, N 3): 2197 mL/h/m^2; Cl ([3]; single agent, […]^2, Day 1, mean, N 4): 2908 mL/h/m^2; dose-proportionality of Cmax and AUC ([3]; single agent, days 1 and 15, over the dose range evaluated, acetate salt): showed dose-proportionality; cytotoxicity of cisplatin on addition of CBP501 (NCI-H226 cells): increased; cytotoxicity of cisplatin on addition of CBP501 (MSTO-211H cells): increased; Cmax [4]: ~4 µM
